Here are results for one compound from US20180200368A1, “DISRUPTION OR ALTERATION OF MICROBIOLOGICAL FILMS” (UNIVERSITEIT GENT, priority 2015, published 2018).

Common to all, as to test: Bacterial viability of biofilm after VNB cluster disruption and tobramycin treatment
What all share (type): cell-based

The test system of assay [1] is Burkholderia multivorans LMG18825 biofilms. The settings on record: 70 nm AuNPs + single 7 ns pulse of 561 nm laser (2.8 J/cm2), then tobramycin 32 μg/mL for 24 hours at 37° C.; vs tobramycin alone. The method, then:
(§1) In the study, the synergistic effect of vapour nanobubble mediated cluster disruption and antibiotic treatment was evaluated for 3 types of bacteria. As gram-negatives, Burkholderia multivorans LMG18825 and Pseudomonas aeruginosa LESB58 were selected. Staphylococcus aureus Mu50, often implicated in skin and soft tissue infections, was chosen as a challenging representative of gram-positive bacteria. AuNPs were evaluated for achieving efficient loading and disruption of biofilm clusters. […] The Bacteria are stained with SYTO59 and the gold particles were detected by reflection of the laser light.
(§2) In further experiments, the synergistic effect of VNB biofilm cluster disruption with relevant antibiotics or disinfectants is evaluated. The biofilm first received a laser treatment for cluster disruption, followed by treatment with tobramycin. Proper controls were taken into account: untreated control, only AuNPs, only laser treatment, VNBs only, AuNPs with tobramycin. Each location in the biofilm received a single 7 ns pulse of 561 nm laser light (2.8 J/cm2) followed by Tobramycin treatment at 32 μg/mL, 16 μg/mL and 1024 μg/mL for Burkholderia multivorans, Pseudomonas aeruginosa and Staphylococcus aureus biofilms, respectively. The bacterial viability following vapour nanobubble generation and antibiotic treatment is shown in FIG. 5 The different experiments are as follows: […]

In assay [2] the test system is Staphylococcus aureus Mu50 biofilms. The note with it: 70 nm AuNPs + single 7 ns pulse of 561 nm laser (2.8 J/cm2), then tobramycin 1024 μg/mL for 24 hours at 37° C. On the procedure:
as §1, §2

The test system of assay [3] is Pseudomonas aeruginosa LESB58 biofilms. On the procedure: as §1
as §2, with “respectively.” for “respectively. The bacterial viability following vapour nanobubble generation and antibiotic treatment is shown in FIG. 5 The different experiments are as follows:”
In another experiment, the effect of applying different laser pulses on the biofilm was evaluated. […]

Take `NC[C@H]1O[C@H](O[C@H]2[C@H](O)[C@@H](O[C@H]3O[C@H](CO)[C@@H](O)[C@H](N)[C@H]3O)[C@H](N)C[C@@H]2N)[C@H](N)C[C@@H]1O` [tobramycin]: in assay [1], the “increased eradication potency of tobramycin by use of VNBs” value is around 50 times. The “CFU decrease of combined VNB-tobramycin treatment as compared to tobramycin alone” value in assay [2] is recorded as around 10 times; in assay [3] (70 nm AuNPs + single 7 ns pulse of 561 nm laser (2.8 J/cm2), then tobramycin 16 μg/mL for 24 hours at 37° C.) it was around 20 times. Also, the “CFU decrease in comparison with treatment with tobramycin alone” value in assay [3] (10 laser pulses of 7 ns of 561 nm (2.8 J/cm2) per location (10× VNB formation), then tobramycin for 24 hours at 37° C.) is around 4000 times.
